We go through one compound from ChEMBL document CHEMBL6178002, “Identification of a RANKL/TNF-α Dual-Inhibitor as a Potential Disease-Modifying Agent for the Treatment of Knee Osteoarthritis” (J Med Chem, 2025).

Calls of active or inactive are those of the source. The rule behind the calls is not given here.

In general, inhibition refers to the change of the read-out against control, counted positive when it falls. A word on the IC50: it is the concentration that inhibits the measured activity by half. Higher therefore signals weaker potency. In general, Kd refers to the constant that tells how readily two partners part at equilibrium. The half-life is the time in which the quantity being followed falls by half. Read a high half-life as slow decline. As usually defined, the clearance is the volume of plasma or blood freed of the substance per unit of time. By AUC(0-t) is commonly meant exposure summed from dosing to a finite time, without extrapolation to infinity. A lower AUC(0-t) goes with less exposure. For orientation: bioavailability means dose-corrected exposure relative to a reference, in per cent.

The nature of data set [1]: Inhibition of RANKL/M-CSF-induced osteoclastogenesis in male C57/BL6 mouse bone marrow cells at 0.1 uM incubated for 5 to 7 days by TRAP staining based analysis relative to control. Format: functional. The conditions noted are these: C57/BL6, Bone marrow cell, time 5-7 day.
A short description of data set [2]: (§1) Inhibition of RANKL/M-CSF-induced osteoclastogenesis in male C57/BL6 mouse bone marrow cells incubated for 5 to 7 days by TRAP staining based analysis. The format is functional. The conditions noted are these: bone marrow cell.
The subject of data set [3] is Bone marrow cell. The data set is described as §1. Format: functional. The conditions noted are these: dose <= 5.0 µM, time 5-7 day.
For data set [4], the system named is Bone marrow cell. Kind of data set: Inhibition of RANKL/M-CSF-induced osteoclastogenesis in male C57/BL6 mouse bone marrow cells at 1 uM by TRAP staining based analysis. The conditions noted are these: time 1-7 day. The format is functional.
Data set [5] deals with Bone marrow macrophage. Nature of the data set: Inhibition of RANKL/M-CSF-induced osteoclastogenesis in bone marrow macrophage cells (unknown origin) assessed as decrease in NFATC1 mRNA level incubated for 48 hrs by RT-qPCR analysis. The conditions noted are these: dose <= 5.0 µM. Format: functional, cell-based. (Real-time PCR tracks product formation cycle by cycle.)
In data set [6] the test system is Bone marrow macrophage. Kind of data set: Inhibition of RANKL/M-CSF-induced osteoclastogenesis in bone marrow macrophage cells (unknown origin) assessed as decrease in c-Fos mRNA level incubated for 48 hrs by RT-qPCR analysis. Format: functional, cell-based. The conditions noted are these: dose <= 5.0 µM.
Data set [7] concerns Bone marrow macrophage. Kind of data set: Inhibition of RANKL/M-CSF-induced osteoclastogenesis in bone marrow macrophage cells (unknown origin) assessed as decrease in c-Fos mRNA level at 1 uM by RT-qPCR analysis. The format is functional, cell-based. The settings on record: time <= 5.0 day.
Data set [8] deals with Bone marrow macrophage. Kind of data set: Inhibition of RANKL/M-CSF-induced osteoclastogenesis in bone marrow macrophage cells (unknown origin) assessed as decrease in NFATC1 level incubated for 48 hrs by Western blot analysis. Format: functional, cell-based. The conditions noted are these: dose <= 2.5 µM. For orientation: Immunoblotting shows a protein as a band on a membrane.

Data set [9] relates to Bone marrow macrophage. Kind of data set: Inhibition of RANKL/M-CSF-induced osteoclastogenesis in bone marrow macrophage cells (unknown origin) assessed as decrease in TRAP level incubated for 48 hrs by Western blot analysis. Format: functional, cell-based. The settings on record: dose <= 2.5 µM.
The test system of data set [10] is Bone marrow macrophage. Nature of the data set: Inhibition of RANKL/M-CSF-induced osteoclastogenesis in bone marrow macrophage cells (unknown origin) assessed as decrease in c-Fos level at 1 uM by Western blot analysis. The format is functional, cell-based. The conditions noted are these: time <= 5.0 day.
Data set [11] has as its system Bone marrow macrophage. Kind of data set: Inhibition of RANKL/M-CSF-induced osteoclastogenesis in bone marrow macrophage cells (unknown origin) assessed as decrease in cathepsin K level incubated for 48 hrs by Western blot analysis. The settings on record: dose <= 2.5 µM. The format is functional, cell-based.
For another data set, the target named is Tumor necrosis factor (Homo sapiens, UniProt P01375). Kind of data set: Binding affinity to CM5 chip-immobilized human TNF-alpha assessed as dissociation constant by SPR analysis.
Chain of Tumor necrosis factor (P01375 whole entry): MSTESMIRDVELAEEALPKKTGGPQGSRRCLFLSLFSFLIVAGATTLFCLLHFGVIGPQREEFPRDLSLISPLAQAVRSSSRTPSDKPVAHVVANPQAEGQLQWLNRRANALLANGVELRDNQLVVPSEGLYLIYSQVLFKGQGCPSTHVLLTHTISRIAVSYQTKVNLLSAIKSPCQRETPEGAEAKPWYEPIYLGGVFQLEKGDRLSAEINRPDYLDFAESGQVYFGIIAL
For data set [12], the system named is RAW264.7. Kind of data set: Anti-inflammatory activity in LPS-stimulated mouse RAW264.7 cells assessed as decrease in TNF-alpha level at 10 uM preincubated for 24 hrs followed by LPS addition measured after 2 hrs by RT-qPCR analysis. The format is functional, cell-based. The settings on record: time 26.0 hrs.
Data set [13] concerns RAW264.7. Nature of the data set: Anti-inflammatory activity in LPS-stimulated mouse RAW264.7 cells assessed as decrease in IL-6 level at 10 uM preincubated for 24 hrs followed by LPS addition measured after 2 hrs by RT-qPCR analysis. The format is functional, cell-based. The settings on record: time 26.0 hrs.
Data set [14] concerns Primary chondrocyte. Kind of data set: Anti-inflammatory activity in IL-1beta-treated C57/BL6 mouse primary chondrocytes assessed as decrease in MMP-3 mRNA level at 10 uM incubated for 24 hrs by RT-qPCR analysis. The format is functional, cell-based.
For data set [15], the system named is Primary chondrocyte. Kind of data set: Anti-inflammatory activity in IL-1beta-treated C57/BL6 mouse primary chondrocytes assessed as decrease in MMP-9 mRNA level at 10 uM incubated for 24 hrs by RT-qPCR analysis. The format is functional, cell-based.
In data set [16] the test system is Primary chondrocyte. Kind of data set: Anti-inflammatory activity in IL-1beta-treated C57/BL6 mouse primary chondrocytes assessed as increase in collagen II mRNA level at 10 uM incubated for 24 hrs by RT-qPCR analysis. Format: functional, cell-based.
Data set [17] in a line: Half life in male Sprague-Dawley rat at 1 mg/kg, iv measured for 0.25 to 24 hrs. The settings on record: in vivo, time 0.25-24 hrs. The format is ADME, organism-based.
Data set [18] in a line: Clearance in male Sprague-Dawley rat at 1 mg/kg, iv measured for 0.25 to 24 hrs. The format is ADME, organism-based. The conditions noted are these: in vivo, time 0.25-24 hrs.
Data set [19] is described as follows: AUC (0 to t) in male Sprague-Dawley rat at 10 mg/kg, po measured for 0.25 to 24 hrs. The format is ADME, organism-based. The settings on record: in vivo, time 0.25-24 hrs.
Data set [20] can be described thus: Oral bioavailability in male Sprague-Dawley rat at 1 mg/kg, iv measured for 0.25 to 24 hrs. Format: ADME, organism-based. The settings on record: in vivo, time 0.25-24 hrs.
Data set [21] is filed under the species Rattus norvegicus. Kind of data set: Anti-inflammatory activity in male Sprague-Dawley rat model of ACLT-induced osteoarthritis assessed as reduction in surface temperature in arthritic joint at 50 to 100 ug, IART treated weekly once for 8 weeks by infrared imaging analysis. The format is functional, organism-based. The conditions noted are these: dose 50-100 µg.

For data set [22], the species on record is Rattus norvegicus. Kind of data set: Anti-inflammatory activity in male Sprague-Dawley rat model of ACLT-induced osteoarthritis assessed as reduction in OA-induced pain at 50 to 100 ug, IART treated weekly once for 8 weeks by hot-plate test. The format is functional, organism-based. The settings on record: dose 50-100 µg. For orientation: In hot-plate and tail-flick tests a longer latency is read as antinociception.

The species entered for data set [23] is Rattus norvegicus. Kind of data set: Anti-inflammatory activity in male Sprague-Dawley rat model of ACLT-induced osteoarthritis assessed as increase in BMD level at 50 to 100 ug, IART treated weekly once for 8 weeks by micro-CT analysis. The format is functional, organism-based. The settings on record: dose 50-100 µg.

Take `Cc1cccc(C)c1NC(=O)[C@@H]1Cc2c([nH]c3ccccc23)C2(CN(c3ccccc3)C2)N1`: 0.1 µM produced 59.7% inhibition in [1]. The compound also showed an IC50 in [2] of 0.109 µM. Moreover, the inhibition result with Bone marrow cell [3] was “Dose-dependent-effect”; in the data set with Bone marrow cell [4] it was “Time-dependent-effect”; with Bone marrow macrophage [5], “Dose-dependent-effect”; in the data set with Bone marrow macrophage [6] it was “Dose-dependent-effect”; with Bone marrow macrophage [7], “Time-dependent-effect”; in the data set with Bone marrow macrophage [8], “Dose-dependent-effect”. Besides, the inhibition entry was “Dose-dependent-effect” with Bone marrow macrophage [9], “Time-dependent-effect” in the data set with Bone marrow macrophage [10] and “Dose-dependent-effect” with Bone marrow macrophage [11]. The Kd at Tumor necrosis factor was 18.6 µM. In addition, the result in the data set on RAW264.7 [12], in the data set with RAW264.7 [13], in the data set with Primary chondrocyte [14], in the data set on Primary chondrocyte [15], with Primary chondrocyte [16] and in the data set filed under Rattus norvegicus [21] was Active. The result in the data set listed under Rattus norvegicus [22] and in the data set filed under Rattus norvegicus [23] was Active. This compound showed a half-life in data set [17] of 1.27 h. Moreover, the clearance in [18] stood at 71.7 mL/min/kg. Also, in [19], the AUC(0-t) worked out at 1620 ng·h/mL. Moreover, the bioavailability in data set [20] was 71.4%.
